Laboratory results: US10975042B2, “Method for purifying an amino acid-n-carboxy anhydride” (SHIN-ETSU CHEMICAL CO., LTD., priority 2018, dated 2021)

Legend:
[1] = Solubility of NCA to good solvent and poor solvent, visual observation; format: physicochemical
From the text: The method to determine that the solvent is a good solvent for NCA includes a method of adding a good solvent to NCA with stirring, followed by visual observation to confirm that the NCA has been dissolved without forming turbidity, but is not particularly limited if complete dissolution can be determined by the method.
The method to determine that the solvent is a poor solvent for NCA is not particularly limited if total insolubility can be confirmed, including a method of adding a poor solvent to NCA with stirring, followed by confirming that the NCA is not dissolved at all and turbidity is not observed by visual inspection.
On the other hand, in order to determine the solubility of NCA to n-hexane, which is a poor solvent, 0.2 g of the purified NCA shown by the structural formula (A) was tried to be dissolved in 2.0 g of n-hexane.
[…] On the other hand, as a method to determine the solubility to a poor solvent, 2.0 g of n-hexane was added to 0.2 g of each NCA after purification.

[2] = Long-term storage stability of NCA, purity by DSC; format: physicochemical; settings: DSC
Procedure: In Examples and Comparative Examples, the purity of each NCA was measured using differential scanning calorimeter (DSC) in accordance with 2.52 thermal analysis method of The Japanese Pharmacopoeia, 17th ed. (2.4.4. measurement of purity). The measurement was performed using Thermo plus EVO DSC8230 (manufactured by Rigalu Corporation) as a measurement apparatus with the sample amount of 1 mg at a temperature increasing rate of 1° C./minute. Incidentally, it is conceived that precise measurement cannot be guaranteed unless the purity is 98 mol % or more according to 2.52 thermal analysis method of The Japanese Pharmacopoeia, 17th ed. (2.4.4. measurement of purity).
Each purified NCA was evaluated for long-term storage stability. […] Regarding the conditions of −20±5° C., the results of purity measured by DSC at after a half year, after 1 year, and after 2 years are shown. Regarding the conditions of 0 to 5° C., the results of purity measured by DSC at after 1 month, 2 months, and a half year are shown. As a comparison, commercially available NCA shown by the general formula (A) (manufactured by Isochem), the purity of which is more than 98 mol % based on the DSC measurement, was evaluated and shown as Comparison 1. This NCA has a residual chlorine concentration of 0.030 mass % and belongs to a lot with extremely low residual chlorine concentration in commercially available NCAs.

With `CC(C)(C)OC(=O)CCC1CC(=O)OC1=O` (centres unmarked) [(A)] the “solubility of NCA to ethyl acetate (good solvent), purified NCA” value ([1]; 0.2 g purified NCA in 1.0 g ethyl acetate) was “undissolved impurity was not determined visually”, the “solubility of NCA to n-hexane (poor solvent), purified NCA” value ([1]; 0.2 g purified NCA in 2.0 g n-hexane) was “dissolution was not determined visually” and the “solubility of NCA to ethyl acetate (good solvent), NCA before purification” value ([1]; NCA before purification in ethyl acetate) was “undissolved impurities were determined visually”. For the same molecule, the Purity after purification ([2]; initial value of storage test at 0 to 5° C.) was 98.93 mol %, the Purity after purification ([2]; initial value of storage test at −20±5° C.) was 98.93 mol % and the “Purity after 1 month from purification” value ([2]; storage at 0 to 5° C., 1 month) was 98.93 mol %. The “Purity after 2 months from purification” value ([2]; storage at 0 to 5° C., 2 months) was 98.92 mol %, the “Purity after a half year from purification” value ([2]; storage at 0 to 5° C.) was 98.90 mol % and the “Purity after 1 year from purification” value ([2]; storage at −20±5° C., 1 year) was 98.92 mol %. The “Purity after 2 years from purification” value ([2]; storage at −20±5° C., 2 years) was 98.90 mol % and the “Purity after a half year from purification” value ([2]; storage at −20±5° C.) was 98.94 mol %.
